In patent US20120226031A1, “PALMARUMYCIN BASED INHIBITORS OF THIOREDOXIN AND METHODS OF USING SAME” (ARIZONA BOARD OF REGENTS, ACTING ON BEHALF OF THE …, priority 2005, published 2012):
In brackets after ≈: the same amount, converted by molar mass. Like-named read-outs stand apart in the source and are kept apart here.

Tests used:
[1] = target: T1, human thioredoxin reductase (Homo sapiens, UniProt Q16881); assay: Inhibition of purified human thioredoxin reductase (TrxR/TR); type: biochemical
T1 construct: (placenta); from tissue; host or cells: human placenta
T1 sequence (Q16881 151-649 limits assumed): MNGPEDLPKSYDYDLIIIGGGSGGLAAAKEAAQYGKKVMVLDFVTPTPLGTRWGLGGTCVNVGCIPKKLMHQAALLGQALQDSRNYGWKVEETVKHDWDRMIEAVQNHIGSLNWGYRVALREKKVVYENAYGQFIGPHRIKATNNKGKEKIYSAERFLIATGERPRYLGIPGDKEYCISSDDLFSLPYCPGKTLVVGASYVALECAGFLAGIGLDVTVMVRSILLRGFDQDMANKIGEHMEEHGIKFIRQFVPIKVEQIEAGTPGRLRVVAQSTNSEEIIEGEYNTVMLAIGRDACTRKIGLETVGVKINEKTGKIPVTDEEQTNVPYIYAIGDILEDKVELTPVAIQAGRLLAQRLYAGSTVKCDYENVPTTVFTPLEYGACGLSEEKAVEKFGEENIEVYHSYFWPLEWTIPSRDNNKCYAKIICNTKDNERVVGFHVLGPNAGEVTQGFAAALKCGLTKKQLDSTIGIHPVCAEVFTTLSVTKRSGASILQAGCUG

[2] = pH dependent stability in water / 0.1M sodium phosphate buffer; type: physicochemical
Description: PX-916 was stable as a stock solution in ethanol at room temperature with a half life of >5 days. […] Therefore, for in vitro studies PX-916 was used as a stock solution in ethanol, and for in vivo studies made fresh in pH 4.0 buffer vehicle.
Further palmarumycin analogs were synthesized and tested. The following analogs were synthesized: eee269-II, eee86-III, eee263-II and eee273-II. The stability of the analogs was measured in various solutions.

[3] = target: T2, human cytochrome P-450 reductase (versus human thioredoxin reductase, TR) (Homo sapiens, UniProt P16435); assay: Inhibition of human cytochrome P-450 reductase (selectivity); type: biochemical; conditions: human
T2 sequence (P16435 1-677): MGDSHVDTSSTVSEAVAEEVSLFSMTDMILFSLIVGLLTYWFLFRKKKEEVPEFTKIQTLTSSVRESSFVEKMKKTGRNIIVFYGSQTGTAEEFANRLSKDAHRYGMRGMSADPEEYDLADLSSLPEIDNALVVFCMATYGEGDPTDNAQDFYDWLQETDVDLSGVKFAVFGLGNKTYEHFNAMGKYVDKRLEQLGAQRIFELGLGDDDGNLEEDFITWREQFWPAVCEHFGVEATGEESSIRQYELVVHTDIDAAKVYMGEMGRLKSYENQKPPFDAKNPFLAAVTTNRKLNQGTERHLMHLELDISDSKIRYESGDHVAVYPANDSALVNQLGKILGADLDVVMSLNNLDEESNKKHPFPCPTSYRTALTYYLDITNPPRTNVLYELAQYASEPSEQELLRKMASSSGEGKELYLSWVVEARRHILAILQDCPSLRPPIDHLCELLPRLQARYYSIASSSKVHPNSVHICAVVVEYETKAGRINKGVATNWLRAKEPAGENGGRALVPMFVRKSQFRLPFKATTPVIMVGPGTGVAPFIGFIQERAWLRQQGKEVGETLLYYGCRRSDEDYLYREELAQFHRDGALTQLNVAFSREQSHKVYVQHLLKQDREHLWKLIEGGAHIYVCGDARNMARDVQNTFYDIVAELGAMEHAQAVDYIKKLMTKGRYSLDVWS
Description: (§1) Based upon the observation that PX-916 was rapidly converted to PX-960 in aqueous solution, the ability of PX-960 to inhibit purified human TR was measured and found to be similar to that of PX-916 (Table 2). PX-916 was a selective inhibitor of human TR compared to two other NADPH dependent reductases with a selectivity of at least 200 for human glutathione reductase and human cytochrome P-450 reductase (Table 3).

[4] = target: T3, human cytochrome P-450 reductase (Homo sapiens, UniProt P16435); assay: as above; type: biochemical
T3 sequence (P16435 1-677): T2 sequence (P16435 1-677)
Description: as §1

[5] = Aqueous solubility; type: physicochemical
[6] = test system: SHP-77 human small cell lung cancer; assay: Antitumor activity, SHP-77 small cell lung cancer xenograft; type: in vivo, mouse
Description: FIG. 4. Antitumor activity of PX-916. A. Female beige nude mice were inoculated subcutaneously (s.c.) with 10^7 A-673 rhabdomyosarcoma cells. When tumors were 100 mm^3 on day 8 (arrow) dosing was begun with (∘) vehicle alone; (▴) PX-916 10 mg/kg intraperitoneally (i.p.) daily for 4 doses. B. Female scid mice were inoculated s.c. with 10^7 SHP-77 human small cell lung cancer cells. When tumors were 130 mm^3 on day 17 (arrow) dosing was begun with (∘) vehicle alone; (▪) PX-916 10 mg/kg i.v. daily for 8 doses; (▴) PX-916 25 mg/kg i.v. daily for 5 doses. C. Female scid mice implanted 1 day previously with a 17-β-estradiol 60 day slow release pellet were inoculated s.c. with 10^7 MCF-7 human breast cancer cells. When tumors were 180 mm^3 on day 8 (arrow) dosing was begun with (∘) vehicle alone; (⋄) PX-916 27.5 mg/kg i.v. daily for 5 doses. In both A and B values are the mean of 8 mice per group and bars are SE.
A single intravenous (i.v.) dose of PX-916 of 25 mg/kg inhibited MCF-7 human tumor xenograft TR up to about 60% at 24 hr and the inhibition was maintained for at least 48 hr (FIG. 3C). […] In this study 3 of eight nice had no histologically detectable tumor when the study was terminated on day 42.

[7] = 10 mg/kg i.v. daily for 8 doses
[8] = 25 mg/kg i.v. daily for 5 doses

NCC(=O)Oc1ccc2c3c(cccc13)OC1(C=CC(=O)c3c(O)cccc31)O2 (centres unmarked) [PX-916, O-glycyl naphthoquinone spiroketal]
IC50 ([1]; Table 1, read-out: TrxR inhibitory activity IC50): 280 nM
IC50 ([1]; Table 2, read-out: Inhibition of human thioredoxin reductase IC50): 280 nM
IC50 ([1]; Table 3, read-out: Inhibition IC50, thioredoxin reductase (placenta)): 280 nM
mode of inhibition of thioredoxin reductase-1 ([1]; in words): NADPH and time dependent, apparently, irreversible inhibitor
IC50 ([1]; read-out: IC50 purified TrxR): 280 nM
IC50 ([1]; read-out: IC50 purified human TR): 280 nM
half-life ([2]; 0.1M sodium phosphate buffer, pH 4.0, read-out: half life (converted)): 2220 min
half-life ([2]; 0.1M sodium phosphate buffer, pH 7.0, read-out: half life (converted)): 60 min
half-life ([2]; 0.1M sodium phosphate buffer, pH 10.0, read-out: half life (converted)): < 60 min
half life of conversion to PX-960 ([2]; physiological pH): 1 h
half-life ([2]; water, pH 4, room temperature, pH4, read-out: t1/2 in water (converted)): 2220 min
half-life ([2]; water, pH 7 and above, read-out: t1/2 in water (converted)): < 60 min
selectivity ratio ([3]; Table 3, read-out: Selectivity for TR vs cytochrome P-450 reductase): 104
selectivity ratio ([3]; read-out: selectivity for human TR vs human cytochrome P-450 reductase): ≥ 200
concentration increase needed to inhibit cytochrome P-450 reductase [4]: greater than 100 fold
IC50 ([4]; Table 3, read-out: Inhibition IC50, cytochrome P-450 reductase (recombinant)): 29.2 µM
apparent maximum solubility in water [5]: around 10 mg
improvement of aqueous solubility vs PX-960 [5]: 1-2 orders of magnitude
solubility ([5]; 20% β-cyclodextrin, aqueous with cosolvent or surfactant or cyclodextrin, read-out: solubility with 20% β-cyclodextrin): 2000 µg/mL (≈ 5.14 mM)
solubility ([5]; water, read-out: water solubility): 700 µg/mL (≈ 1.8 mM)
tumor growth inhibition [6, 7]: 39%
tumor growth rate [6, 7]: about 91±24 mm^3/day
mice with no histologically detectable tumor on day 42 [6, 8]: 3 of eight
tumor growth inhibition [6, 8]: 82%
tumor growth rate ([6]; 25 mg/kg i.v. daily for 5 doses, 5 days after end of dosing): 27 mm^3/day
tumor regressions ([6]; in words): complete tumor regressions were seen in some mice
